Experiments:
Type in all cases: cell-based
[1] = test system: TNF-α production; experiment: TNF-α production by LPS-stimulated human peripheral blood monocytes (ELISA); conditions: LPS 10 ng/ml, 18 h, compound 0.1-100 μM
Method: (§1) TNF-α and IL-6 production inhibitory activity of the compound of the present invention was evaluated by determining the amounts of TNF-α and IL-6 produced by the human peripheral blood monocyte stimulated with lipopolysaccharide(LPS). Briefly, human peripheral blood monocyte fraction was isolated from the peripheral venous blood from healthy male volunteers by density gradient centrifugation with Ficoll-Paque (Pharmacia). The monocytes were suspended in RPMI 1640 medium (Gibco BRL) containing 10% FCS and seeded at 5×10^5 cell/160 μl in a 96-well plate.
(§2) The present compound was added to the monocytes cultured and the mixture was left at 37° C. for thirty minutes. Then the monocytes were stimulated by adding LPS (Sigma) at a final concentration of 10 ng/ml and left 37° C. for eighteen hours. For control, the cells were used wherein LPS was added to the cell at a final concentration of 10 ng/ml without the present compound.
(§3) The amount of each of TNF-α and IL-6, which were released in the culture supernatant, was measured using an ELISA kit (R & D). The inhibitory rate (%) of TNF-α and IL-6 production as compared to control was calculated using the following formula from the amounts of TNF-α and […] thus measured: [formula]
(§4) In addition, the concentration of the present compound to inhibit 50% (IC50) was calculated by plotting the inhibitory rate (%) of IL-6 and TNF-α production obtained by varying a final concentration of the present compound of from 0.1 μM to 100 μM.

[2] = test system: IL-2 production; experiment: IL-2 production by PHA-stimulated human peripheral lymphocytes (ELISA); conditions: PHA 10 μl/ml, 48 h, compound 0.1-100 μM
Method: Human peripheral lymphocytes were stimulated with mitogen (PHA) to induce IL-2 production. The amount of IL-2 produced was measured to evaluate the inhibitory effect of the present compound. Briefly, human peripheral blood monocyte fraction was isolated in a manner similar to Test Example 1.
The monocytes were suspended in RPM 1640 medium (Gibco BRL) containing 10% FCS and seeded in a petri dish and left at 37° C. for an hour. Then, the cells (lymphocytes) which were not attached to the wall of the petri desh were isolated by centrifugation. The lymphocytes collected were suspended in the medium and seeded at 5×10^5 cell/160 μl in a 96-well plate.
The present compound was added to the lymphocytes cultured and the mixture was left at 37° C. for thirty minutes. Then, the cells were stimulated by adding PHA (Difco) at a final concentration of 10 μl/ml and left at 37° C. for forty eight hours. For control, the cells were used wherein PHA was added to the cell at a final concentration of 10 μl/ml without the present compound.
The amount of IL-2 which was released in the culture supernatant was measured using an ELISA kit (BioSource International). The inhibitory rate (%) of IL-2 production as compared to control was calculated using the following formula from IL-2 amounts thus measured: [formula]
In addition, the concentration of the present compound to inhibit 50% (IC50) was calculated by plotting the inhibitory rate (%) of IL-2 production obtained by varying a final concentration of the present compound of from 0.1 μM to 100 μM.

[3] = test system: IL-6 production; experiment: IL-6 production by LPS-stimulated human peripheral blood monocytes (ELISA); conditions: Monocyte, LPS 10 ng/ml, 18 h, compound 0.1-100 μM
Method: as §1, §2, §3, §4

Row | Compound | IC50 ([1]; Monocyte) | IC50 ([2]; Lymphocyte) | IC50 [3] | IC50 [1] | IC50 [2]
1 | O=C1C=CCC(CCc2ccccc2)C[C@@H](O)[C@H]1O (mixture of isomers) [Example 84 (b), (7RS,8RS)-7,8-dihydroxy-5-phenethyl-2-cycloocten-1-one] | 8.8 µM | 3.6 µM |  |  | 
2 | O=C1/C=C\CCC(Cc2ccccc2)CC[C@@H](O)[C@H]1O (mixture of isomers) [Example 87, Z-(9RS,10RS)-6-benzyl-9,10-dihydroxy-2-cyclodecen-1-one] | 12.4 µM | 3 µM |  |  | 
3 | COc1ccc(C(=O)OC2CC/C=C\C(=O)[C@H](O)[C@H](O)CC2)c(O)c1 (mixture of isomers) [Example 93, Z-(7RS,8RS)-7,8-dihydroxy-6-oxo-4-cyclodecenyl (2-hydroxy-4-methoxy)benzoate] |  |  |  | 1.8 µM | 2 µM
4 | O=C1C=CCC(Cc2ccccc2)CCC1 (centres unmarked) [Example 4, 5-Benzyl-2-cycloocten-1-one] | 13.6 µM |  | 23.3 µM |  | 
5 | O=C1C=CCC(CCc2ccccc2)CCC1 (centres unmarked) [Example 5, 5-Phenethyl-2-cycloocten-1-one] | 13.7 µM | 1.7 µM | 21.6 µM |  | 
6 | O=C1/C=C\CCC(Cc2ccccc2)CCCC1 (centres unmarked) [Example 22 (a), Z-6-benzyl-2-cyclodecen-1-one] | 28.1 µM | 2.6 µM |  |  | 
7 | COc1ccc(C(=O)OC2CC=CC(=O)CCC2)c(O)c1 (centres unmarked) [Example 47, 5-Oxo-3-cyclooctenyl (2-hydroxy-4-methoxy)benzoate] |  |  |  | 0.5 µM | 0.14 µM

Further molecules by falling IC50 ([1]; Monocyte), results first:

Row | IC50 ([1]; Monocyte) | IC50 ([2]; Lymphocyte) | IC50 [3] | Compound | IC50 [1] | IC50 [2]
8 | 5.9 µM | 2.1 µM | 6.8 µM | O=C1C=CCC(CCc2cccc(O)c2)CCC1 (centres unmarked) [Example 18, 5-[2-(3-Hydroxyphenyl)ethyl]-2-cycloocten-1-one] |  | 
9 | 3.4 µM |  |  | O=C(OC1CC=CC(=O)[C@H](O)[C@H](O)C1)c1ccccc1O (mixture of isomers) [Example 90 (a), (6RS,7RS)-6,7-dihydroxy-5-oxo-3-cyclooctenyl 2-hydroxybenzoate] |  | 
10 | 2.2 µM | 64.9 µM |  | O=C1C=CCC(CCc2ccccc2O)C[C@@H](O)[C@H]1O (mixture of isomers) [Example 85 (a), (7RS,8RS)-7,8-dihydroxy-5-[2-(2-hydroxyphenyl)ethyl]-2-cycloocten-1-one] |  | 
11 | 1.7 µM | 1.2 µM |  | O=C(OC1CC/C=C\C(=O)[C@H](O)[C@H](O)CC1)c1ccccc1O (mixture of isomers) [Example 92, Z-(7RS,8RS)-7,8-dihydroxy-6-oxo-4-cyclodecenyl (2-hydroxy)benzoate] |  | 

— US6949585B2, “Cyclooctanone derivatives and cyclodecanone derivative, and use thereof” (Eisai Co., Ltd., priority 2001, dated 2005)
